Results as given in the NIST ThermoML archive (doi:10.1016/j.jct.2006.09.007).
± gives the expanded uncertainty stated by the source.

Columns and labels:
[1] = xn = mol fraction of the nth substance listed; conditions: 101.3 kPa, Liquid
[2] = 101.3 kPa, Liquid
[3] = molar heat capacity at constant pressure; conditions: 298.15 K; 101.33 kPa; Liquid; Flow calorimetry

N#Cc1ccccc1 [benzonitrile] + Cc1cc(C)cc(C)c1
[1]
Conditions	excess molar heat capacity, 298.15 K [J/K/mol]	mass density, 298.15 K [kg/m3]	mass density, 308.15 K [kg/m3]
x1 = 0.073	–	869.06 ± 0.46	860.02 ± 0.47
x1 = 0.0754	0.726 ± 0.052	–	–
x1 = 0.1029	0.966 ± 0.052	–	–
x1 = 0.1412	–	876.92 ± 0.43	867.88 ± 0.45
x1 = 0.1917	–	882.87 ± 0.41	873.78 ± 0.43
x1 = 0.2104	1.56 ± 0.054	–	–
x1 = 0.283	1.84 ± 0.055	–	–
x1 = 0.2955	–	895.5 ± 0.38	886.4 ± 0.39
x1 = 0.3596	–	903.59 ± 0.35	894.43 ± 0.37
x1 = 0.381	2.016 ± 0.055	–	–
x1 = 0.4531	–	915.84 ± 0.32	906.58 ± 0.33
x1 = 0.4702	1.987 ± 0.055	–	–
x1 = 0.5128	–	923.9 ± 0.3	914.75 ± 0.31
x1 = 0.5479	1.864 ± 0.055	–	–
x1 = 0.6098	–	937.51 ± 0.27	928.28 ± 0.28
x1 = 0.6441	1.563 ± 0.054	–	–
x1 = 0.7005	–	950.89 ± 0.23	941.57 ± 0.25
x1 = 0.712	1.3 ± 0.053	–	–
x1 = 0.7895	–	964.64 ± 0.2	955.31 ± 0.21
x1 = 0.8092	0.861 ± 0.052	–	–
x1 = 0.879	–	979.23 ± 0.17	969.79 ± 0.18
x1 = 0.9041	0.428 ± 0.051	–	–
x1 = 0.9501	0.177 ± 0.05	–	–
x1 = 0.9536	–	991.98 ± 0.15	982.49 ± 0.16
x1 = 1	–	1000.25 ± 0.13	990.67 ± 0.15

Cc1cc(C)cc(C)c1 [1,3,5-trimethylbenzene] + N#Cc1ccccc1
[1], x2 = 0
Conditions	mass density [kg/m3]
298.15 K	860.9 ± 0.49
308.15 K	851.88 ± 0.5

N#Cc1ccccc1 [benzonitrile] + Cc1cccc(C)c1
[1], 298.15 K, Flow calorimetry
Conditions	excess molar heat capacity [J/K/mol]
x1 = 0.0568	0.522 ± 0.1
x1 = 0.0772	0.686 ± 0.1
x1 = 0.1671	1.299 ± 0.11
x1 = 0.2404	1.53 ± 0.11
x1 = 0.3272	1.727 ± 0.11
x1 = 0.4115	1.696 ± 0.11
x1 = 0.4878	1.66 ± 0.11
x1 = 0.5753	1.415 ± 0.11
x1 = 0.6422	1.272 ± 0.11
x1 = 0.7301	0.936 ± 0.1
x1 = 0.8157	0.683 ± 0.1
x1 = 0.887	0.377 ± 0.1
x1 = 0.9334	0.254 ± 0.1

mass density [kg/m3], [1]
Conditions	x1 = 0.0741	x1 = 0.1804	x1 = 0.316	x1 = 0.4608	x1 = 0.5438	x1 = 0.6475	x1 = 0.74	x1 = 0.8816	x1 = 0.899	x1 = 1
298.15 K	869.26 ± 0.46	883.15 ± 0.42	901.15 ± 0.36	920.81 ± 0.31	932.33 ± 0.28	947.01 ± 0.25	960.47 ± 0.21	981.74 ± 0.17	984.42 ± 0.16	1000.25 ± 0.13
308.15 K	859.61 ± 0.47	873.5 ± 0.43	891.52 ± 0.38	911.17 ± 0.33	922.69 ± 0.3	937.4 ± 0.26	950.87 ± 0.23	972.18 ± 0.18	974.85 ± 0.18	990.67 ± 0.15

CC(C)c1ccccc1 [isopropylbenzene]
[2]
Conditions	mass density [kg/m3]
298.15 K	857.41 ± 0.49
308.15 K	848.26 ± 0.5

Conditions	molar heat capacity at constant pressure [J/K/mol]
[3]	214.75 ± 0.44

Cc1cccc(C)c1 [1,3-dimethylbenzene] + N#Cc1ccccc1
[1], x2 = 0
Conditions	mass density [kg/m3]
298.15 K	859.68 ± 0.49
308.15 K	850.01 ± 0.5

Cc1ccccc1C [1,2-dimethylbenzene] + N#Cc1ccccc1
[1], x2 = 0
Conditions	mass density [kg/m3]
298.15 K	875.55 ± 0.47
308.15 K	866.29 ± 0.48
